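Protocol summary: plate cells (96-well), add compound at 5 concentrations, incubate 48 h, interpolate endpoints linearly. Definition used: TGI = concentration required for complete inhibition of growth.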
Tests used:
Assay in all cases: NCI anticancer screen, dose series, 48 h
NCI-H522 lung = system: NCI-H522 lung
SK-MEL-5 melanoma = system: SK-MEL-5 melanoma
HOP-62 NSCLC = system: HOP-62 NSCLC
HT29 colon = system: HT29 colon
NCI-H226 lung = system: NCI-H226 lung
COLO 205 colon = system: COLO 205 colon
IGROV1 ovarian = system: IGROV1 ovarian
T-47D breast = system: T-47D breast
SK-MEL-28 melanoma = system: SK-MEL-28 melanoma
DU-145 prostate = system: DU-145 prostate
UACC-62 melanoma = system: UACC-62 melanoma
HCT-116 colon = system: HCT-116 colon
OVCAR-8 ovarian = system: OVCAR-8 ovarian
SF-539 CNS = system: SF-539 CNS
LOX IMVI melanoma = system: LOX IMVI melanoma
HS 578T breast = system: HS 578T breast
MALME-3M melanoma = system: MALME-3M melanoma
SW-620 colon = system: SW-620 colon

**Q.** How did the TGI (NCI-H522 lung) turn out when `O=C(OC1C#CCSCC#C/C=C\1)c1ccc2c(c1)C(=O)c1ccccc1C2=O` (centres undefined) was run?
**A.** Its TGI is 62.7 µM.

**Q.** And the TGI (SK-MEL-5 melanoma)?
**A.** Its TGI is > 100 µM.

**Q.** And the TGI (HOP-62 NSCLC)?
**A.** Its TGI is 42.8 µM.

**Q.** And the TGI (HT29 colon)?
**A.** The TGI was > 100 µM.

**Q.** What about the TGI (NCI-H226 lung) of the same compound?
**A.** The TGI was > 100 µM.

**Q.** What about the TGI (COLO 205 colon) of the same compound?
**A.** The TGI was > 100 µM.

**Q.** What about the TGI (IGROV1 ovarian) of the same compound?
**A.** Its TGI is > 100 µM.

**Q.** What about the TGI (T-47D breast) of the same compound?
**A.** The TGI was > 100 µM.

**Q.** And the TGI (SK-MEL-28 melanoma)?
**A.** The TGI was > 100 µM.

**Q.** And the TGI (DU-145 prostate)?
**A.** The TGI was > 100 µM.

**Q.** What about the TGI (UACC-62 melanoma) of the same compound?
**A.** The TGI was 34.2 µM.

**Q.** And the TGI (HCT-116 colon)?
**A.** The TGI was > 100 µM.

**Q.** What about the TGI (OVCAR-8 ovarian) of the same compound?
**A.** Its TGI is > 100 µM.

**Q.** What about the TGI (SF-539 CNS) of the same compound?
**A.** Its TGI is 40.7 µM.

**Q.** What about the TGI (LOX IMVI melanoma) of the same compound?
**A.** Its TGI is > 100 µM.

**Q.** What about the TGI (HS 578T breast) of the same compound?
**A.** The TGI was > 100 µM.

**Q.** What about the TGI (MALME-3M melanoma) of the same compound?
**A.** Its TGI is > 100 µM.

**Q.** What about the TGI (SW-620 colon) of the same compound?
**A.** The TGI was > 100 µM.

**Q.** Which TGI (HOP-62 NSCLC) does the source give for `CN(C)CCCn1c(-c2ccc(Br)cc2)csc1=Nc1ccccc1` here?
**A.** Its TGI is 26.4 µM.

**Q.** And the TGI (NCI-H226 lung)?
**A.** Its TGI is 27.3 µM.

**Q.** What about the TGI (SK-MEL-28 melanoma) of the same compound?
**A.** The TGI was 53.3 µM.

**Q.** And the TGI (UACC-62 melanoma)?
**A.** Its TGI is 29.6 µM.

**Q.** And the TGI (OVCAR-8 ovarian)?
**A.** Its TGI is 32.1 µM.

**Q.** And the TGI (SF-539 CNS)?
**A.** The TGI was 34 µM.

— PubChem BioAssay (NCI)
